Source: ChEMBL document CHEMBL4152365, “Discovery of DS-6930, a potent selective PPARγ modulator. Part I: Lead identification” (Bioorg Med Chem, 2018)
Converted amounts (≈) assume the structure as drawn. The source made the active and inactive calls. The rule behind the calls is not given here.

Legend:
Rattus norvegicus [1] = assay: Toxicity in Wistar-Imamichi rat assessed as elevation in AST activity at 30 to 300 mg/kg, po administered via gavage once daily for 28 days; type: organism-based; conditions: in vivo, 672 h
Rattus norvegicus [2] = assay: Glucose-lowering effect in Zucker diabetic fatty rat assessed as reduction in plasma glucose level at 3 mg/kg, po administered once daily for 14 days measured on day 14 post last dose relative to control; type: functional; parameters: scale not given: the % may be the effect or the level left
Rattus norvegicus [3] = assay: Toxicity in Wistar-Imamichi rat assessed as effect on hemodilution by measuring increase in heart weight at 30 to 300 mg/kg, po administered via gavage once daily for 28 days; type: organism-based; conditions: in vivo, 672 h
Rattus norvegicus [4] = assay: Toxicity in Wistar-Imamichi rat assessed as death at 30 to 300 mg/kg, po administered via gavage once daily for 28 days; type: organism-based; conditions: in vivo, 672 h
Rattus norvegicus [5] = assay: Toxicity in Wistar-Imamichi rat assessed as elevation in ALT activity at 30 to 300 mg/kg, po administered via gavage once daily for 28 days; type: organism-based; conditions: in vivo, 672 h
Rattus norvegicus [6] = assay: Toxicity in Wistar-Imamichi rat assessed as reduction in RBC count at 30 mg/kg, po administered via gavage once daily for 28 days relative to control; type: organism-based; parameters: scale not given: the % may be the effect or the level left; conditions: in vivo, 672 h
Rattus norvegicus [7] = assay: Toxicity in Zucker diabetic fatty rat assessed as body weight gain at 3 mg/kg, po administered once daily for 14 days relative to control; type: organism-based; conditions: in vivo, 336 h
Rattus norvegicus [8] = assay: Toxicity in Wistar-Imamichi rat assessed as reduction in RBC count at 100 mg/kg, po administered via gavage once daily for 28 days relative to control; type: organism-based; parameters: scale not given: the % may be the effect or the level left; conditions: in vivo, 672 h
Rattus norvegicus [9] = assay: Toxicity in Wistar-Imamichi rat assessed as reduction in RBC count at 30 to 300 mg/kg, po administered via gavage once daily for 28 days; type: organism-based; conditions: in vivo, 672 h
Rattus norvegicus [10] = assay: Toxicity in Wistar-Imamichi rat assessed as effect on hemodilution by measuring increase in heart weight at 100 mg/kg, po administered via gavage once daily for 28 days; type: organism-based; conditions: in vivo, 672 h
Rattus norvegicus [11] = assay: Toxicity in Wistar-Imamichi rat assessed as reduction in RBC count at 300 mg/kg, po administered via gavage once daily for 28 days relative to control; type: organism-based; parameters: scale not given: the % may be the effect or the level left; conditions: in vivo, 672 h
Rattus norvegicus [12] = assay: Toxicity in Wistar-Imamichi rat assessed as clinical abnormality at 30 to 300 mg/kg, po administered via gavage once daily for 28 days; type: organism-based; conditions: in vivo, 672 h
Mus musculus [13] = assay: Toxicity in hyperglycemic KK/Ta mouse assessed as body weight gain at 30 mg/kg/day, po administered through diet for 3 days relative to control; type: organism-based; conditions: in vivo, 72 h
[14] = target: T1, Peroxisome proliferator-activated receptor delta (Homo sapiens) (UniProt Q03181); assay: Agonist activity at PPARdelta (unknown origin) at 10 uM
T1 sequence (whole entry): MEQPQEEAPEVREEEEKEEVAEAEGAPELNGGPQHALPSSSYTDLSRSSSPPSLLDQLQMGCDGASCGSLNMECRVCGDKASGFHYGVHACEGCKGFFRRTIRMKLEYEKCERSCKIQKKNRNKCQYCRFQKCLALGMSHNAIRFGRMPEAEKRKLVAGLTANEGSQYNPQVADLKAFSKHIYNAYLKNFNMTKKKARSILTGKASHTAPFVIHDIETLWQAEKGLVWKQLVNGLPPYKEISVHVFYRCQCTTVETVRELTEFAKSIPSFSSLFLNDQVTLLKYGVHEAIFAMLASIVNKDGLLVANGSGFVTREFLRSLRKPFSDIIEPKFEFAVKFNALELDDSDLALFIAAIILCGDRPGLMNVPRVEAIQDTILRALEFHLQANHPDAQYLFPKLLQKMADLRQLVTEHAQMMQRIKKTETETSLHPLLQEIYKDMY

[15] = target: T2, Peroxisome proliferator-activated receptor alpha (Homo sapiens, UniProt Q07869); assay: Agonist activity at recombinant human GAL4-DBD fused PPARalpha LBD expressed in COS7 cells after 24 hrs by luciferase reporter gene assay; type: cell-based
T2 sequence (Q07869 whole entry): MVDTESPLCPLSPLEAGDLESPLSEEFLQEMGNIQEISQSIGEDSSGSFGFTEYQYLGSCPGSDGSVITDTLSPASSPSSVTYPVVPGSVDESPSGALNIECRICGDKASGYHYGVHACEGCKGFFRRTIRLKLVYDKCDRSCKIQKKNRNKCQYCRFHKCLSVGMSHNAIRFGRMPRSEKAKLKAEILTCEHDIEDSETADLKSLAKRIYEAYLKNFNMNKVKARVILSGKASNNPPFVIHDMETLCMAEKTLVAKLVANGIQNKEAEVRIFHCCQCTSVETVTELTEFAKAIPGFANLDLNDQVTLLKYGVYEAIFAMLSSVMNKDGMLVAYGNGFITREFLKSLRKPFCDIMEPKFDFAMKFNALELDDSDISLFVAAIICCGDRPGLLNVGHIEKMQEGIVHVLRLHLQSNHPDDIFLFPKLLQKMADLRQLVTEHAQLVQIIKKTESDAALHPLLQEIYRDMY

[16] = Tmax in cynomolgus monkey at 3 mg/kg, po by LC-MS/MS analysis; type: ADME, organism-based, Macaca fascicularis; conditions: in vivo
[17] = Aqueous thermodynamic solubility of the compound in pH 6.8 solution up to 4 hrs by HPLC-UV analysis; type: physicochemical; conditions: read-out: Therm_solubility
[18] = target: T3, Peroxisome proliferator-activated receptor alpha (Homo sapiens) (UniProt Q07869); assay: Agonist activity at recombinant human GAL4-DBD fused PPARalpha LBD expressed in COS7 cells at 10 uM after 24 hrs by luciferase reporter gene assay relative to 2-(4-tert-Butylphenoxy)-3-[4-[2-[(4-pyridin-2-ylbenzoyl)amino]ethoxy]; type: cell-based
T3 sequence (whole entry): T2 sequence (Q07869 whole entry)

[19] = 1-octanol/PBS distribution co-efficient, log D of the compound at […] at pH 7.4 after 30 mins by HPLC-MS/MS analysis; type: physicochemical
[20] = Clearance in cynomolgus monkey at 1 mg/kg, iv by LC-MS/MS analysis; type: ADME, organism-based, Macaca fascicularis; conditions: in vivo
[21] = Half life in cynomolgus monkey at 3 mg/kg, po by LC-MS/MS analysis; type: ADME, organism-based, Macaca fascicularis; conditions: in vivo
[22] = Oral bioavailability in cynomolgus monkey at 3 mg/kg by LC-MS/MS analysis; type: ADME, organism-based, Macaca fascicularis; conditions: in vivo
[23] = Volume of distribution at steady state in cynomolgus monkey at 1 mg/kg, iv by LC-MS/MS analysis; type: ADME, organism-based, Macaca fascicularis; conditions: in vivo, read-out: Vdss
[24] = Cmax in Zucker diabetic fatty rat at 3 mg/kg, po dosed once daily for 14 days and followed by additional administeration on day 15; type: ADME, organism-based; parameters: dose 3 mg/kg, route oral; conditions: in vivo
[25] = Metabolic stability in rat liver microsomes after 0.5 hrs; type: ADME, microsome; conditions: read-out: Stability
[26] = AUClast in cynomolgus monkey at 3 mg/kg, po by LC-MS/MS analysis; type: ADME, organism-based, Macaca fascicularis; parameters: dose 3 mg/kg, route oral, time 0 - last; conditions: in vivo
[27] = Plasma concentration in hyperglycemic KK/Ta mouse at 30 mg/kg/day, po administered through diet for 3 days measured on day 3 post last dose; type: ADME, organism-based
[28] = Tmax in Zucker diabetic fatty rat at 3 mg/kg, po dosed once daily for 14 days and followed by additional administeration on day 15; type: ADME, organism-based; conditions: in vivo
[29] = target: T4, Peroxisome proliferator-activated receptor gamma (Homo sapiens, UniProt P37231); assay: Agonist activity at recombinant human GAL4-DBD fused PPARgamma LBD expressed in COS7 cells after 24 hrs by luciferase reporter gene assay; type: cell-based
T4 sequence (P37231 whole entry): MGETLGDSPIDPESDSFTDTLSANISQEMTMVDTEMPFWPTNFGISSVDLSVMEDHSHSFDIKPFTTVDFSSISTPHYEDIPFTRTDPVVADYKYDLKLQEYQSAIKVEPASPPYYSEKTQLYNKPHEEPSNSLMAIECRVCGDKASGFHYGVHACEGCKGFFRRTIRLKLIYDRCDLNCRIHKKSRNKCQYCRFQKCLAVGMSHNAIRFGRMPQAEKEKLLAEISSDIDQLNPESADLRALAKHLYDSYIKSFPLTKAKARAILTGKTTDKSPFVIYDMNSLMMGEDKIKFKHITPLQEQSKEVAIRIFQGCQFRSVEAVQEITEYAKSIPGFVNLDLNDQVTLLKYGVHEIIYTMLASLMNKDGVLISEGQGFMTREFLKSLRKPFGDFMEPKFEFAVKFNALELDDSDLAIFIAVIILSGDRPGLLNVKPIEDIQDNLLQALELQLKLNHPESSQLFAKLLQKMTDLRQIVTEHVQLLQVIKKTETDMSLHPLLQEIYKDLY

[30] = Cmax in cynomolgus monkey at 3 mg/kg, po by LC-MS/MS analysis; type: ADME, organism-based, Macaca fascicularis; parameters: dose 3 mg/kg, route oral; conditions: in vivo
[31] = target: T5, Peroxisome proliferator-activated receptor gamma (Homo sapiens) (UniProt P37231); assay: Agonist activity at recombinant human GAL4-DBD fused PPARgamma LBD expressed in COS7 cells at 10 uM after 24 hrs by luciferase reporter gene assay relative to rosiglitazone; type: cell-based
T5 sequence (whole entry): T4 sequence (P37231 whole entry)

[32] = Metabolic stability in cynomolgus monkey liver microsomes after 0.5 hrs; type: ADME, Macaca fascicularis, microsome; conditions: read-out: Stability
Mus musculus [33] = assay: Glucose-lowering effect in hyperglycemic KK/Ta mouse assessed as reduction in plasma glucose level at 30 mg/kg/day, po administered through diet for 3 days relative to control; type: functional; parameters: scale not given: the % may be the effect or the level left
[34] = AUC (0 to 24 hrs) in Zucker diabetic fatty rat at 3 mg/kg, po dosed once daily for 14 days and followed by additional administeration on day 15; type: ADME, organism-based; parameters: dose 3 mg/kg, time < 24 hr, route oral; conditions: in vivo
[35] = Metabolic stability in human liver microsomes after 0.5 hrs; type: ADME, microsome; conditions: read-out: Stability

Row | EC50 [15] [nM] | Tmax [16] [h] | solubility thermodynamic at 4 h [17] [µg/mL] | Emax [18] [%] | logD at 0.5 h [19] | clearance [20] [mL/min/kg] | half-life [21] [h] | bioavailability [22] [%] | Vd [23] [L/kg] | Cmax [24] [ng/mL] | remaining at 0.5 h [25] [%] | AUC(0-t) [26] [ng·h/mL] | concentration at 72 h [27] [ng/mL] | Tmax [28] [h] | EC50 [29] [nM] | Cmax [30] [ng/mL] | Emax [31] [%] | SMILES | Activity (Rattus norvegicus [2]) [%] | Activity (Rattus norvegicus [7]) [%] | Activity (Mus musculus [13]) [%] | other results
1 | – | – | – | – | – | – | – | – | – | – | – | – | – | – | – | – | – | CN(CCOc1ccc(CC2SC(=O)NC2=O)cc1)c1ccccn1 (stereo not given) [ROSIGLITAZONE] | 40.3 | 12.6 | – | Activity (Rattus norvegicus [1]): Non-Toxic; Activity (Rattus norvegicus [3]): Toxic; Activity (Rattus norvegicus [4]): Non-Toxic; Activity (Rattus norvegicus [5]): Non-Toxic; Activity (Rattus norvegicus [6]): 5.9%; Activity (Rattus norvegicus [8]): 8.9%; Activity (Rattus norvegicus [9]): Dose-dependent effect; Activity (Rattus norvegicus [10]): 24.7%; Activity (Rattus norvegicus [11]): 14.2%; Activity (Rattus norvegicus [12]): Non-Toxic
2 | > 10000 | 1 | 7.9 (≈ 20.3 µM) | 28 | 2.4 | 3.58 | 10.4 | 34 | 0.56 | 1110 | 100 | 4870 | 510 | 2 | 40 | 1020 | 73 | Cc1ccc(Oc2ccc3nc(COc4cccc(C(=O)O)c4)n(C)c3c2)cc1 | 58.6 | 13 | 4.8 | Activity [14]: inactive; remaining at 0.5 h [32]: 100%; Activity (Mus musculus [33]): 48.4%; AUC at 24 h [34]: 7100 ng·h/mL; remaining at 0.5 h [35]: 91%
3 | > 10000 | 1 | 5.7 (≈ 13.9 µM) | 36 | 1.9 | 0.8 | 16.1 | 65 | 0.39 | 520 | 95 | 40900 | 700 | 2 | 134 | 5630 | 79 | Cn1c(COc2cccc(C(=O)O)c2)nc2ccc(Oc3cc(F)ccc3F)cc21 | 61.2 | 9.5 | 3.3 | remaining at 0.5 h [32]: 100%; Activity (Mus musculus [33]): 51.2%; AUC at 24 h [34]: 3870 ng·h/mL; remaining at 0.5 h [35]: 98%
4 | > 10000 | 1.5 | 0.5 (≈ 1.23 µM) | 16 | 2.3 | 4.16 | 16.1 | 24 | 1.23 | 300 | 98 | 2870 | 550 | 2.4 | 92 | 330 | 90 | Cc1ccc(Oc2ccc3nc(COc4cccc(C(=O)O)c4)n(C)c3c2)c(F)c1 | 61.7 | 8.5 | 2.5 | remaining at 0.5 h [32]: 100%; Activity (Mus musculus [33]): 53.4%; AUC at 24 h [34]: 3160 ng·h/mL; remaining at 0.5 h [35]: 92%
